Measured values from patent US12611446B2, “Cannabinoid product for improving musculoskeletal health” (Lonza Greenwood LLC, priority 2019, dated 2026).
Marks after values point to notes of the source that are not given here.

How the values were obtained:
[1] = test system: Sodium Monoiodoacetate Induced Osteoarthritis(OA) in Rats; assay: Effect of UC-II undenatured Type II collagen and cannabidiol on sodium monoiodoacetate (MIA) induced osteoarthritis in rats: metabolic, inflammatory and oxidative stress markers; type: in vivo; settings: MIA-induced OA male Wistar rats, 30 days; for COMP (cartilage oligomeric matrix protein) / CRP (c-reactive protein) / IL-1β (interleukin-1β) / IL-6 (interleukin-6) / PGE2 (prostaglandin E2) / TNF-α (tumor necrosis factor α): serum
Procedure: OA was induced in male Wistar rats by intra-articular injection of sodium monoiodoacetate (MIA: 1 mg/kg). Treatment was started a week before injection with MIA and lasted 30 days. Biomarker testing was conducted prior to 24 days post MIA.

[2] = test system: Sodium Monoiodoacetate Induced Osteoarthritis(OA) in Rats; assay: Effect of UC-II undenatured Type II collagen and cannabigerol on sodium monoiodoacetate (MIA) induced osteoarthritis in rats: metabolic, inflammatory and oxidative stress markers; type: in vivo; settings: MIA-induced OA female rats, 30 days
Procedure: […] Treatment was started a week before injection with MIA and lasted 30 days. Biomarker testing was conducted prior to 24 days post MIA.
The dosage levels were the same.

[3] = CBD1 = CBD 1.62 mg/kg (combination: + UC-II 4 mg/kg)
[4] = CBD2 = CBD 3.24 mg/kg (combination: + UC-II 4 mg/kg)
[5] = CBGI = CBG 1.62 mg/kg (combination: + UC-II 4 mg/kg)
[6] = CBGII = CBG 3.24 mg/kg (combination: + UC-II 4 mg/kg)

C=C(C)[C@@H]1CCC(C)=C[C@H]1c1c(O)cc(CCCCC)cc1O [CBD, cannabidiol]
ALB (Albumin) [1, 3]: 3.59 ± 0.13^ab g/dL | ALP (Alkaline phosphatase) [1, 3]: 137.14 ± 8.95^a U/L | ALT (Alanine aminotransferase) [1, 3]: 69.14 ± 7.63 U/L | AST (Aspartate aminotransferase) [1, 3]: 108.43 ± 13.4 U/L | BUN (Blood Urine Nitrogen) [1, 3]: 23.57 ± 2.27 mg/dL | CAT (catalase) [1, 3]: 125.79 ± 7.41^d U/mL | CR (Creatine) [1, 3]: 0.45 ± 0.11 mg/dL | GLOB (Globulin) [1, 3]: 3.16 ± 0.05^b g/dL | GLU (Glucose) [1, 3]: 112.43 ± 11.52 mg/dL | MDA (malondialdehyde) [1, 3]: 1.28 ± 0.08^b nmol/mL | OCN (osteocalcin) [1, 3]: 28.20 ± 1.74^e μg/mL | SOD (superoxide dismutase) [1, 3]: 50.00 ± 1.82^de U/mL | TBIL (Total Bilirubin) [1, 3]: 0.20 ± 0.01 mg/dL | TP (Total Protein) [1, 3]: 6.71 ± 0.17 g/dL | ALB (Albumin) [1, 4]: 3.57 ± 0.14^ab g/dL | ALP (Alkaline phosphatase) [1, 4]: 140.43 ± 8.40^a U/L | ALT (Alanine aminotransferase) [1, 4]: 70.29 ± 5.56 U/L | AST (Aspartate aminotransferase) [1, 4]: 110.29 ± 12.58 U/L | BUN (Blood Urine Nitrogen) [1, 4]: 24.23 ± 1.27 mg/dL | CAT (catalase) [1, 4]: 139.36 ± 3.44b^c U/mL | CR (Creatine) [1, 4]: 0.45 ± 0.08 mg/dL | GLOB (Globulin) [1, 4]: 3.27 ± 0.23^ab g/dL | GLU (Glucose) [1, 4]: 109.86 ± 5.81 mg/dL | GSH-Px (glutathione peroxidase) [1, 4]: 85.31 ± 3.85^bc U/mL | MDA (malondialdehyde) [1, 4]: 1.24 ± 0.16^b nmol/mL | OCN (osteocalcin) [1, 4]: 33.35 ± 3.18^d μg/mL | SOD (superoxide dismutase) [1, 4]: 58.04 ± 2.76^c U/mL | TBIL (Total Bilirubin) [1, 4]: 0.20 ± 0.01 mg/dL | TP (Total Protein) [1, 4]: 6.87 ± 0.37 g/dL | COMP (cartilage oligomeric matrix protein) [1, 3]: 21.22 ± 1.77^c ng/mL | CRP (c-reactive protein) [1, 3]: 6.39 ± 1.06^c mg/L | IL-1β (interleukin-1β) [1, 3]: 34.92 ± 2.23^bc pg/mL | IL-6 (interleukin-6) [1, 3]: 30.83 ± 2.17^c pg/mL | PGE2 (prostaglandin E2) [1, 3]: 504.41 ± 37.35^bc pg/mL | TNF-α (tumor necrosis factor α) [1, 3]: 46.58 ± 0.87^c pg/mL | COMP (cartilage oligomeric matrix protein) [1, 4]: 16.32 ± 1.91^d ng/mL | CRP (c-reactive protein) [1, 4]: 3.95 ± 0.20^d mg/L | IL-1β (interleukin-1β) [1, 4]: 31.94 ± 1.91^cd pg/mL | IL-6 (interleukin-6) [1, 4]: 28.65 ± 2.17^c pg/mL | PGE2 (prostaglandin E2) [1, 4]: 469.24 ± 11.42^cd pg/mL | TNF-α (tumor necrosis factor α) [1, 4]: 41.97 ± 1.31^c pg/mL

CCCCCc1cc(O)c(C/C=C(\C)CCC=C(C)C)c(O)c1 [CBG, cannabigerol]
CAT (catalase) [2, 5]: 136.44 ± 4.10^bc U/mL | COMP (cartilage oligometrix matrix protein) [2, 5]: 21.68 ± 2.13^b ng/mL | CRP (c-reactive protein) [2, 5]: 7.04 ± 0.85^b mg/L | GSH-Px (glutathione peroxidase) [2, 5]: 75.87 ± 4.87^bc U/mL | IL-1β (interleukin-1β) [2, 5]: 35.08 ± 3.41^b pg/mL | IL-6 (interleukin-6) [2, 5]: 33.14 ± 4.07^b pg/mL | IL-10 (interleukin-10) [2, 5]: 47.42 ± 5.77^d pg/mL | MDA (malondialdehyde) [2, 5]: 1.57 ± 0.07^b nmol/mL | Osteocalcin [2, 5]: 28.15 ± 1.34^ef μg/mL | PGE2 (prostaglandin E2) [2, 5]: 483 ± 36.86^b pg/mL | SOD (superoxide dismutase) [2, 5]: 49.13 ± 5.76^bc U/mL | TNF-α (tumor necrosis factor α) [2, 5]: 56.95 ± 5.61^b pg/mL | CAT (catalase) [2, 6]: 138.82 ± 2.71^b U/mL | COMP (cartilage oligometrix matrix protein) [2, 6]: 20.42 ± 2.16^b ng/mL | CRP (c-reactive protein) [2, 6]: 6.45 ± 0.82^bc mg/L | GSH-Px (glutathione peroxidase) [2, 6]: 77.29 ± 5.83^b U/mL | IL-1β (interleukin-1β) [2, 6]: 34.05 ± 2.80^b pg/mL | IL-6 (interleukin-6) [2, 6]: 32.41 ± 3.81^b pg/mL | IL-10 (interleukin-10) [2, 6]: 46.17 ± 4.91^d pg/mL | MDA (malondialdehyde) [2, 6]: 1.60 ± 0.07^b nmol/mL | Osteocalcin [2, 6]: 30.82 ± 1.35^de μg/mL | PGE2 (prostaglandin E2) [2, 6]: 473.71 ± 40.89^b pg/mL | SOD (superoxide dismutase) [2, 6]: 51.13 ± 3.75^bc U/mL | TNF-α (tumor necrosis factor α) [2, 6]: 54.32 ± 5.01^b pg/mL
